Drawing on ChEMBL document CHEMBL1157539, “Thousands of chemical starting points for antimalarial lead identification” (Nature, 2010), this text covers XC50 for 83 compounds.

The subject of this assay is Plasmodium falciparum. Nature of the assay: GSK_TCMDC: Inhibition of Plasmodium falciparum 3D7 in whole erythrocytes, using parasite LDH activity as an index of growth. Format: functional, organism-based. Conditions: Plasmodium falciparum, 3D7.
`O=[N+]([O-])c1ccc(Nc2nc(NCc3ccccc3)nc(N/N=C/c3ccccc3[N+](=O)[O-])n2)cc1` registered an XC50 of 157 nM.
`Cc1cc(N/N=C/c2cccc([N+](=O)[O-])c2)c2ccccc2n1` showed an XC50 of 728 nM.
The same measure for `CCN(CC)CCCN(Cc1ccc(-c2ccc(C(F)(F)F)cc2)cc1)C(=O)Cn1c(SCc2cccc(F)c2F)cc(=O)c2ccccc21`: 1320 nM.
As for `CN1CCCc2ccc(NC(=O)c3cnc(-c4ccccc4)cn3)cc21`, the XC50 is 905 nM.
To `CN(C)Cc1ccc2nc(-c3cccc(Cc4cc(Cl)ccc4OCc4ccc(Cl)cc4F)n3)[nH]c2c1` belongs 1130 nM; to `Cc1ccc(NC(=O)c2cc(Br)cc(N3CCC(N(C)C)CC3)c2)cc1F`, 840 nM.
To `NC(=O)N1CCN(Cc2ccc(Br)cc2)CC1` belongs 619 nM.
The same measure for `Cc1cccc2nc(-c3ccc(-c4ccc(CN5CCN(CCC#N)CC5)cc4)cc3)[nH]c12`: 864 nM; for `CCCC(C)NC(=O)[C@H](CC1CCCCC1)NC(=O)c1ccc(O)c(-c2cccc(C(F)(F)F)c2)c1` (stereo partly drawn): 534 nM.
In the case of `COc1ccc(-n2ccnc2SCC(=O)Nc2cc(C(F)(F)F)ccc2Cl)c(OC)c1`, the XC50 came out at 35 nM.
The same measure for `Cc1ccc(CNC(=O)[C@H](CC(C)C)Nc2cc(C)nc(Nc3ccccc3)n2)cc1`: 1770 nM.
To `CCN1CCN(c2cc(C)c3cc(NC(=O)c4cccc(Cl)c4)ccc3n2)CC1` belongs 775 nM; to `Cc1cccc2nc(-c3ccc(-c4ccc(CN5CCN(C6CCN(C)CC6)CC5)cc4)s3)[nH]c12`, 145 nM; to `CN1CCCc2cc(NC(=O)c3cc(-c4ccc(Cl)cc4)cs3)ccc2C1`, 810 nM.
The same measure for `CC(Sc1nc2sccc2c(=O)n1C)C(=O)Nc1ccc2c(c1)OCO2` (stereo not drawn): 1040 nM; for `O=C(NCC(CCCN1CCC(c2c[nH]c3ccccc23)CC1)c1ccccc1)Nc1ccc(Cl)c(Cl)c1` (stereo not drawn): 787 nM.
The compound `C=CCN(c1nc(NC)nc(NCc2c(OC)cccc2OC)n1)C1CCCC1` gave an XC50 of 1460 nM.
The same measure for `CC1CCN(C(=O)[C@H](Cc2c[nH]c3ccccc23)NS(=O)(=O)c2ccc(Cl)cc2)CC1`: 667 nM; for `Cc1cccc2nc(-c3ccc(-c4ccc(CN5CCCC(O)C5)cc4)cc3)[nH]c12` (stereo not drawn): 859 nM.
In turn, `Cc1cccc(C)c1OC(=O)CSc1nnc(-c2ccccc2O)o1` came in with an XC50 of 884 nM.
`CC(C)C[C@H](Nc1ccnc(NCC2CCCCC2)n1)C(=O)NCCOc1ccccc1` returned an XC50 of 1020 nM.
In turn, `COc1ccc(NC(=O)NC2CCN(CCCOc3cc(C)nc4ccccc34)CC2)cc1OC` yielded an XC50 of 1280 nM.
Regarding `CCc1ccccc1N1CCN(CCCCNC(=O)c2ccc(NC(=O)c3ccc(Cl)cc3)cc2)CC1`, the XC50 came out at 960 nM.
With `CC1CCC2(CC1)N=C(N)N=C(N)N2OCc1cc2ccccc2c2ccccc12` (stereo not drawn), the XC50 stood at 243 nM.
Take `CC(C)C[C@H](Nc1ccnc(NCC2CCCCC2)n1)C(=O)NCCc1ccccc1`: the XC50 was 750 nM.
The same measure for `O=C(COc1ccccc1Cc1ccccc1)Nc1cc(Cl)ccc1-n1cncn1`: 640 nM; for `COc1ccc2nc(-c3ccccc3)cc(NCCCNc3cc(-c4ccccc4)nc4ccc(OC)cc34)c2c1`: 122 nM; for `Cn1c(NC(=O)C2CCC(CNC(=O)c3ccc(O)c(-c4cccc([N+](=O)[O-])c4)c3)CC2)nc2ccccc21` (stereo not drawn): 982 nM.
The same measure for `CC1(C)N=C(N)N=C(N)N1c1ccc([N+](=O)[O-])cc1`: 234 nM.
As to `CN1CCC(C(=O)Nc2cccc(-c3ccc(-c4nc5cc(C(F)(F)F)ccc5[nH]4)cc3)c2)CC1`, the XC50 came to 675 nM.
To `CC[C@H]1CN2CCc3cc(OC)c(OC)cc3[C@@H]2C[C@@H]1C[C@H]1NCCc2c1cc(OC)c(O)c2Cl` belongs 144 nM; to `O=C(c1ccc(-c2cnc3[nH]cc(-c4ccc(C(=O)N5CCOCC5)cc4)c3c2)cc1)N1CCOCC1`, 1000 nM.
Turning to `Nc1[nH]c2ccccc2c(=O)c1-c1nc2ccccc2s1`, the XC50 came to 303 nM.
To `O=C(Nc1cccc(-c2ccc(-c3nc4cc(C(F)(F)F)ccc4[nH]3)s2)c1)c1ccncc1` belongs 681 nM.
The same measure for `CCN(CC)CCn1c(=N)n(CC(O)c2ccc(Cl)c(Cl)c2)c2ccccc21` (stereo not drawn): 785 nM; for `CCc1ccc(-n2c(NC(=O)c3ccccc3)nc3ccc(S(=O)(=O)NC(C)C(C)C)cc32)cc1` (stereo not drawn): 926 nM; for `CC(C)CNCc1ccc(-c2cccc(CN(C(=O)NC3CCCCC3)C3CCN(Cc4ccccc4)CC3)c2)cc1`: 805 nM.
Compound `CN(C)CCCc1cc2c(cc1Cl)CCN2C(=O)Nc1ccc(-c2ccncc2)c2ccccc12` displayed an XC50 of 1180 nM.
`COc1cccc2cc(C(=O)N[C@@H](CC(C)C)C(=O)N[C@H](C=NNC(=O)OC(C)(C)C)CC(C)C)oc12` gave an XC50 of 905 nM.
To `COc1cccc(OC(C)(C)c2nc(N[C@@H](C)c3ccccc3)c3cn[nH]c3n2)c1` belongs 968 nM; to `CC(=O)Nc1cc(C(=O)Nc2cccc(-c3cccc(-c4nc5cccc(C)c5[nH]4)c3)c2)ccc1C`, 329 nM; to `O=C(NCCCN1CCC(N2CCCCC2)CC1)C1=Cc2cc(Br)ccc2OC1`, 853 nM.
The same measure for `CCC1CN2CCc3c([nH]c4ccccc34)[C@@H]2C[C@@H]1CC1NCCc2cc(OC)c(OC)cc21` (stereo partly drawn): 865 nM.
The same measure for `O=C(Nc1ccc(-c2nc3ccccc3[nH]2)cc1)c1ccc(N2CCOCC2)c([N+](=O)[O-])c1`: 794 nM.
`O=C(Nc1ccc(Cl)cc1F)NC1CCN(CCCCCNC(=O)C2CC2c2ccc(Cl)c(Cl)c2)CC1` (stereo not drawn): the XC50 was 510 nM.
In the case of `Cc1cccc2nc(-c3cccc(-c4cccc(NC(=O)Nc5ccccc5)c4)c3)[nH]c12`, the XC50 was found to be 139 nM.
Turning to `CC(C)CCNC(=N)Nc1ccc(OCCCOc2ccc(NC(=N)NCCC(C)C)cc2)cc1`, the XC50 stood at 200 nM.
The same measure for `CN1CC[C@@H](Oc2cc(CNC(=O)c3ccc(-c4ccc(Cl)cc4)s3)ccc2C(F)(F)F)C1`: 1030 nM.
To `O=C(Cc1ccc[n+]([O-])c1)Nc1ccc(-c2cccc(-c3nc4cc(C(F)(F)F)ccc4[nH]3)c2)cc1` belongs 882 nM.
To `Cc1ccc(NC(=O)c2cccc(CN3CCCN(Cc4cccc(O)c4)CC3)c2)cc1F` belongs 705 nM; to `CS(=O)(=O)c1cc2c(Nc3ccc(N4CCOCC4)cc3)c(C(N)=O)cnc2cc1Br`, 249 nM.
For the compound `COc1ccc2nccc([C@@H](O)CN3CCC(NC(=O)C(c4cc5ccccc5o4)N4CCC(Cc5ccccc5)CC4)CC3)c2c1` (stereo partly drawn), the XC50 amounted to 247 nM.
Take `C=C[C@]1(C)C[C@@H](OC(=O)c2n[nH]c3ccccc3c2=O)[C@]2(C)[C@H](C)CC[C@]3(CCC(=O)[C@H]32)[C@@H](C)[C@@H]1O`: the XC50 is 670 nM.
The same measure for `COc1ccc(NC(=O)Nc2cc(C)nc3ccccc23)cc1Cl`: 688 nM; for `CCc1ccccc1N1CCN(CCCC(=O)c2ccc(NC(=O)c3ccc(Cl)cc3)cc2)CC1`: 1310 nM.
`CCc1ccc(NC(=O)c2ccc(CN3CCCN(Cc4cccc(C)c4)CC3)cc2)cc1` gave an XC50 of 1130 nM.
The same measure for `Cc1cc(F)ccc1Oc1nc(Nc2ccc(N3CCOCC3)c(F)c2)nc2c1S(=O)(=O)CCC2`: 462 nM.
The same measure for `O=S(=O)(NCCN1CCCC1)c1ccc(-c2ccc(CNCc3ccsc3)cc2)cc1`: 853 nM; for `CCCCCNC(=N)c1ccc(OCCCCCOc2ccc(C(=N)NCCCCC)cc2)cc1`: 247 nM; for `CC(C)Cn1c(Sc2ccc(C#N)c([N+](=O)[O-])c2)nnc1-c1ccccc1`: 1090 nM.
As to `O=C(NCCCCN1CCC(c2ccc3c(c2OCCN2CCCC2=O)CCCC3)CC1)c1ccc(-c2ccc(C(F)(F)F)cc2)cc1`, the XC50 came to 1520 nM.
Take `COc1ccc(N2CCN(c3nc(N)c4cc(OC)c(OC)cc4n3)CC2C)cc1` (stereo not drawn): the XC50 was determined as 1420 nM.
To `Cc1cc(N2CCCC2)nc(Nc2ccc(NC(=O)c3ccco3)cc2)n1` belongs 842 nM.
To `Brc1cnc(NC2=NCCN2)c(Br)c1` belongs 335 nM; to `CC(C)(CNC(=O)C1CCN(CCOc2ccc(F)c(F)c2)CC1)c1nc(-c2ccc(Cl)c(O)c2)c(-c2ccncc2)[nH]1`, 316 nM; to `CCCC(CCC)n1ccc2c3c(N)nc(N)nc3ccc21`, 4.9 nM.
To `Cc1noc(C)c1-c1ccc(C(=C2CCCCCCC2)c2ccc(O)cc2)cc1` belongs 1050 nM; to `COc1ccc2nccc(N3CCC(SCCNS(=O)(=O)c4ccc5c(c4)NC(=O)CS5)C3)c2n1` (stereo not drawn), 1580 nM.
In the case of `Cc1n[nH]c2ccc(-c3ccc4nccc(N5CCC(N)CC5)c4c3)cc12`, the XC50 was found to be 591 nM.
In the case of `CCNc1cc(C(=O)N[C@@H](Cc2ccccc2)[C@H](O)CNC2(C(C)C)CCC2)cc(N2CCCCS2(=O)=O)c1`, the XC50 was 685 nM.
Compound `COc1cc2ncnc(Nc3ccc(OCc4ccccc4)c(C(F)(F)F)c3)c2cc1OC` returned an XC50 of 253 nM.
Compound `O=C(CC1NC(=O)c2ccccc21)Nc1ccc(-c2cccc(-c3nc4cc(C(F)(F)F)ccc4[nH]3)c2)cc1` (stereo not drawn) registered an XC50 of 958 nM.
To `c1cc(CNC2Cc3ccccc3C2)cc(-c2cnc(N3CCNCC3)nc2)c1` belongs 943 nM.
The same measure for `Cc1ccc(CNC(=O)[C@H](CCCN)Nc2nc(Nc3ccccc3)ncc2C)cc1`: 1530 nM; for `CN(C)C(=O)c1ccc(CN(Cc2cccc(OC(C)(C)C)c2)Cc2ccc3c(c2)OCCO3)cc1`: 571 nM; for `CN(C)Cc1c(O)ccc2[nH]c(-c3ccc(OC(F)(F)F)cc3)nc12`: 727 nM.
`O=C(Nc1ccc(Cl)c(-c2nc3ccccc3[nH]2)c1)c1ccc(-c2ccc(Cl)cc2)o1` had an XC50 of 785 nM.
To `FC(F)(F)c1ccc2[nH]c(-c3ccc(-c4cccc(CN5CCN(c6ccncc6)CC5)c4)cc3)nc2c1` belongs 118 nM; to `N#Cc1cc(C(=O)c2cc(Br)ccc2O)cn(-c2cc(Cl)cc(Cl)c2)c1=O`, 879 nM.
In turn, `C[C@H](NC(=O)c1c(CN2CCN(C(=O)C(C)(C)C)CC2)c(-c2cccs2)nc2ccccc12)C1CCCCC1` returned an XC50 of 1180 nM.
The same measure for `COc1ccc(CNc2nc(Nc3cccc(C#N)c3)nc(Nc3cccc(C#N)c3)n2)cc1Cl`: 179 nM; for `Cc1cc(N[C@@H](CC(C)C)C(=O)NC2CCCC2)nc(NCC2CCCCC2)n1`: 858 nM; for `CN1CCN(CCCN(Cc2ccc(-c3ccc(CNCCc4ccccc4)cc3)cc2)C(=O)c2cccs2)CC1`: 1430 nM.
